From patent US12077503B2, “Substituted cyclic amides and their use as herbicides” (FMC CORPORATION, priority 2015, dated 2024)

Assays:
Assay type in all cases: in vivo
[1] = tested on: barnyardgrass (Echinochloa crus-galli); test: Test G Pre-Emergence Protocol; details: Echinochloa crus-galli, pre-emergence, 312 h, evaluated after 13 days; for pest or weed control at 15.625 g/ha: 15.625 g ai/ha; for pest or weed control at 15.625 g/ha / pest or weed control at 250 g/ha: read-out: Barnyardgrass damage rating (100=total damage to plant; 0=no damage to plant); for pest or weed control at 62.5 g/ha: 62.5 g ai/ha, 100=total damage to plant, 0=no damage to plant, read-out: Barnyardgrass damage rating; for pest or weed control at 250 g/ha: 250 g ai/ha
In short: (§1)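 Herbicidal effect was rated 13 days post-application on a scale where 100 equals total damage. Spraying took place the day after sowing, using 15.625, 62.5 or 250 g/ha of compound in a 50:50 acetone/water solution with 0.5% Tween 20.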

corn (Zea mays) [2] = test: Test G Pre-Emergence Protocol; details: Zea mays, pre-emergence, 312 h, evaluated after 13 days; for plant injury at 15.625 g/ha: 15.625 g ai/ha; for plant injury at 15.625 g/ha / plant injury at 250 g/ha: read-out: Corn damage rating (100=total damage to plant; 0=no damage to plant); for plant injury at 62.5 g/ha: 62.5 g ai/ha, 100=total damage to plant, 0=no damage to plant, read-out: Corn damage rating; for plant injury at 250 g/ha: 250 g ai/ha
In short: as §1

[3] = tested on: giant foxtail (Setaria faberi); test: Test G Pre-Emergence Protocol; details: Setaria faberi, pre-emergence, 312 h, evaluated after 13 days; for pest or weed control at 15.625 g/ha: 15.625 g ai/ha; for pest or weed control at 15.625 g/ha / pest or weed control at 250 g/ha: read-out: Foxtail, Giant damage rating (100=total damage to plant; 0=no damage to plant); for pest or weed control at 62.5 g/ha: 62.5 g ai/ha, 100=total damage to plant, 0=no damage to plant, read-out: Foxtail, Giant damage rating; for pest or weed control at 250 g/ha: 250 g ai/ha
In short: as §1

[4] = tested on: ivy-leaved morning glory (Ipomoea hederacea); test: Test G Pre-Emergence Protocol; details: Ipomoea, pre-emergence, 312 h, evaluated after 13 days; for pest or weed control at 15.625 g/ha: 15.625 g ai/ha; for pest or weed control at 15.625 g/ha / pest or weed control at 250 g/ha: read-out: Morningglory, Ivy-leaved damage rating (100=total damage to plant; 0=no damage to plant); for pest or weed control at 62.5 g/ha: 62.5 g ai/ha, 100=total damage to plant, 0=no damage to plant, read-out: Morningglory, Ivy-leaved damage rating; for pest or weed control at 250 g/ha: 250 g ai/ha
In short: as §1

[5] = tested on: redroot pigweed (Amaranthus retroflexus); test: Test G Pre-Emergence Protocol; details: Amaranthus retroflexus, pre-emergence, 312 h, evaluated after 13 days; for pest or weed control at 15.625 g/ha: 15.625 g ai/ha; for pest or weed control at 15.625 g/ha / pest or weed control at 250 g/ha: read-out: Pigweed, Redroot damage rating (100=total damage to plant; 0=no damage to plant); for pest or weed control at 62.5 g/ha: 62.5 g ai/ha, 100=total damage to plant, 0=no damage to plant, read-out: Pigweed, Redroot damage rating; for pest or weed control at 250 g/ha: 250 g ai/ha
In short: as §1

[6] = tested on: velvetleaf (Abutilon theophrasti); test: Test G Pre-Emergence Protocol; details: Abutilon theophrasti, pre-emergence, 312 h, evaluated after 13 days; for pest or weed control at 15.625 g/ha: 15.625 g ai/ha; for pest or weed control at 15.625 g/ha / pest or weed control at 250 g/ha: read-out: Velvetleaf damage rating (100=total damage to plant; 0=no damage to plant); for pest or weed control at 62.5 g/ha: 62.5 g ai/ha, 100=total damage to plant, 0=no damage to plant, read-out: Velvetleaf damage rating; for pest or weed control at 250 g/ha: 250 g ai/ha
In short: as §1

[7] = tested on: barnyardgrass (Echinochloa crus-galli); test: Test G Post-Emergence Protocol; details: Echinochloa crus-galli, post-emergence, 312 h, read-out: Barnyardgrass damage rating; for pest or weed control at 15.625 g/ha: 15.625 g ai/ha, evaluated after 13 days (100=total damage to plant; 0=no damage to plant); for pest or weed control at 62.5 g/ha: 62.5 g ai/ha; for pest or weed control at 62.5 g/ha / pest or weed control at 250 g/ha: evaluated after 13 days, 100=total damage to plant, 0=no damage to plant; for pest or weed control at 250 g/ha: 250 g ai/ha
In short: (§2)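 Values are percent visual injury at 13 days after treatment (0 none, 100 total). Treatment was a post-emergence spray at 15.625, 62.5 or 250 g/ha on 8-day-old pot plants kept at 24/16 °C.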

corn (Zea mays) [8] = test: Test G Post-Emergence Protocol; details: Zea mays, post-emergence, 312 h, read-out: Corn damage rating; for plant injury at 15.625 g/ha: 15.625 g ai/ha, evaluated after 13 days (100=total damage to plant; 0=no damage to plant); for plant injury at 62.5 g/ha: 62.5 g ai/ha; for plant injury at 62.5 g/ha / plant injury at 250 g/ha: evaluated after 13 days, 100=total damage to plant, 0=no damage to plant; for plant injury at 250 g/ha: 250 g ai/ha
In short: as §2

[9] = tested on: giant foxtail (Setaria faberi); test: Test G Post-Emergence Protocol; details: Setaria faberi, post-emergence, 312 h, read-out: Foxtail, Giant damage rating; for pest or weed control at 15.625 g/ha: 15.625 g ai/ha, evaluated after 13 days (100=total damage to plant; 0=no damage to plant); for pest or weed control at 62.5 g/ha: 62.5 g ai/ha; for pest or weed control at 62.5 g/ha / pest or weed control at 250 g/ha: evaluated after 13 days, 100=total damage to plant, 0=no damage to plant; for pest or weed control at 250 g/ha: 250 g ai/ha
In short: as §2

[10] = tested on: ivy-leaved morning glory (Ipomoea hederacea); test: Test G Post-Emergence Protocol; details: Ipomoea, post-emergence, 312 h, read-out: Morningglory, Ivy-leaved damage rating; for pest or weed control at 15.625 g/ha: 15.625 g ai/ha, evaluated after 13 days (100=total damage to plant; 0=no damage to plant); for pest or weed control at 62.5 g/ha: 62.5 g ai/ha; for pest or weed control at 62.5 g/ha / pest or weed control at 250 g/ha: evaluated after 13 days, 100=total damage to plant, 0=no damage to plant; for pest or weed control at 250 g/ha: 250 g ai/ha
In short: as §2

[11] = tested on: redroot pigweed (Amaranthus retroflexus); test: Test G Post-Emergence Protocol; details: Amaranthus retroflexus, post-emergence, 312 h, read-out: Pigweed, Redroot damage rating; for pest or weed control at 15.625 g/ha: 15.625 g ai/ha, evaluated after 13 days (100=total damage to plant; 0=no damage to plant); for pest or weed control at 62.5 g/ha: 62.5 g ai/ha; for pest or weed control at 62.5 g/ha / pest or weed control at 250 g/ha: evaluated after 13 days, 100=total damage to plant, 0=no damage to plant; for pest or weed control at 250 g/ha: 250 g ai/ha
In short: as §2

[12] = tested on: velvetleaf (Abutilon theophrasti); test: Test G Post-Emergence Protocol; details: Abutilon theophrasti, post-emergence, 312 h, read-out: Velvetleaf damage rating; for pest or weed control at 15.625 g/ha: 15.625 g ai/ha, evaluated after 13 days (100=total damage to plant; 0=no damage to plant); for pest or weed control at 62.5 g/ha: 62.5 g ai/ha; for pest or weed control at 62.5 g/ha / pest or weed control at 250 g/ha: evaluated after 13 days, 100=total damage to plant, 0=no damage to plant; for pest or weed control at 250 g/ha: 250 g ai/ha
In short: as §2

Structure (SMILES)	pest or weed control at 15.625 g/ha [1] [%]	pest or weed control at 62.5 g/ha [1] [%]	pest or weed control at 250 g/ha [1] [%]	plant injury at 15.625 g/ha (corn (Zea mays) [2]) [%]	plant injury at 62.5 g/ha (corn (Zea mays) [2]) [%]	plant injury at 250 g/ha (corn (Zea mays) [2]) [%]	pest or weed control at 15.625 g/ha [3] [%]	pest or weed control at 62.5 g/ha [3] [%]	pest or weed control at 250 g/ha [3] [%]	pest or weed control at 15.625 g/ha [4] [%]	pest or weed control at 62.5 g/ha [4] [%]	pest or weed control at 250 g/ha [4] [%]	pest or weed control at 15.625 g/ha [5] [%]	pest or weed control at 62.5 g/ha [5] [%]	pest or weed control at 250 g/ha [5] [%]	pest or weed control at 15.625 g/ha [6] [%]	pest or weed control at 62.5 g/ha [6] [%]	pest or weed control at 250 g/ha [6] [%]	pest or weed control at 15.625 g/ha [7] [%]	pest or weed control at 62.5 g/ha [7] [%]	further results
CN1C[C@@H](c2cc(Br)cc(Oc3ccccc3)c2)[C@H](C(=O)Nc2cccc(F)c2F)C1=O (racemic) [Compound 1821]	0	0	0	0	10	0	0	10	60	0	0	0	0	0	20	0	0	0	0	0	pest or weed control at 250 g/ha [7]: 0%; plant injury at 15.625 g/ha (corn (Zea mays) [8]): 10%; plant injury at 62.5 g/ha (corn (Zea mays) [8]): 10%; plant injury at 250 g/ha (corn (Zea mays) [8]): 30%; pest or weed control at 15.625 g/ha [9]: 0%; pest or weed control at 62.5 g/ha [9]: 10%; pest or weed control at 250 g/ha [9]: 30%; pest or weed control at 15.625 g/ha [10]: 0%; pest or weed control at 62.5 g/ha [10]: 0%; pest or weed control at 250 g/ha [10]: 10%; pest or weed control at 15.625 g/ha [11]: 0%; pest or weed control at 62.5 g/ha [11]: 30%; pest or weed control at 250 g/ha [11]: 70%; pest or weed control at 15.625 g/ha [12]: 0%; pest or weed control at 62.5 g/ha [12]: 10%; pest or weed control at 250 g/ha [12]: 0%
COC(=O)c1cc([C@H]2CN(C)C(=O)[C@@H]2C(=O)Nc2ccccc2F)ccc1F (racemic) [Compound 1682]	0	0	0	0	0	0	0	0	0	0	0	0	0	0	0	0	0	0	0	0	pest or weed control at 250 g/ha [7]: 0%; plant injury at 15.625 g/ha (corn (Zea mays) [8]): 0%; plant injury at 62.5 g/ha (corn (Zea mays) [8]): 0%; plant injury at 250 g/ha (corn (Zea mays) [8]): 0%; pest or weed control at 15.625 g/ha [9]: 0%; pest or weed control at 62.5 g/ha [9]: 0%; pest or weed control at 15.625 g/ha [10]: 0%; pest or weed control at 62.5 g/ha [10]: 0%; pest or weed control at 250 g/ha [10]: 0%; pest or weed control at 15.625 g/ha [11]: 0%; pest or weed control at 62.5 g/ha [11]: 0%; pest or weed control at 250 g/ha [11]: 0%; pest or weed control at 15.625 g/ha [12]: 0%; pest or weed control at 62.5 g/ha [12]: 0%; pest or weed control at 250 g/ha [12]: 0%
CN1C[C@H](c2ccc(C(F)(F)F)cc2)[C@@H](C(=O)Nc2cccc(F)[n+]2[O-])C1=O (racemic) [Compound 1814]	0	0	0	0	0	0	0	0	0	0	0	0	0	0	0	0	0	0	0	0	pest or weed control at 250 g/ha [7]: 0%; plant injury at 15.625 g/ha (corn (Zea mays) [8]): 0%; plant injury at 62.5 g/ha (corn (Zea mays) [8]): 0%; plant injury at 250 g/ha (corn (Zea mays) [8]): 0%; pest or weed control at 15.625 g/ha [9]: 0%; pest or weed control at 62.5 g/ha [9]: 0%; pest or weed control at 250 g/ha [9]: 10%; pest or weed control at 15.625 g/ha [10]: 0%; pest or weed control at 62.5 g/ha [10]: 0%; pest or weed control at 250 g/ha [10]: 0%; pest or weed control at 15.625 g/ha [11]: 0%; pest or weed control at 62.5 g/ha [11]: 0%; pest or weed control at 250 g/ha [11]: 0%; pest or weed control at 15.625 g/ha [12]: 0%; pest or weed control at 62.5 g/ha [12]: 0%; pest or weed control at 250 g/ha [12]: 0%
